Data set [1] relates to human childhood brain tumor cell lines (PFSK-1). Put plainly: Growth inhibitory activity against PFSK-1 cells (WST-8, Cell Counting Kit-8). Type of data set: cell-based. The settings on record: Homo sapiens, 72 h, 3 days incubation with test compound, WST-8 OD 450/630 nm, read-out: IC50 (concentration inhibiting 50% of the cell growth). In outline: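 Cells seeded in RPMI 1640 with 10% FBS and preincubated 24 h at 37 °C, 5% CO2, then exposed to compound for 3 days. IC50 (nM) from growth relative to untreated control.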

Consider `Cc1cc(C2=NNC(=O)CC2C)cc(Cl)c1OCCO` (stereo not shown) [Example 4, 6-[3-Chloro-4-(2-hydroxyethoxy)-5-methylphenyl]-5-methyl-4,5-dihydro-2H-pyridazin-3-one], for which the melting point – broadly, the temperature, or range, at which the solid turns liquid – was in the range of 157.4 to 157.6 °C.
`Cc1cc(C2=NNC(=O)CC2C)cc(Cl)c1OCCCO` (stereo not shown) [Example 17, 6-[3-Chloro-4-(3-hydroxypropoxy)-5-methylphenyl]-5-methyl-4,5-dihydro-2H-pyridazin-3-one] showed a melting point of 129.7 to 132.6 °C. Moreover, in data set [1], the IC50 turned out to be 2.9 nM.
As for `CC1CC(=O)NN=C1c1cc(Cl)c(OCCCO)c(Br)c1` (stereo not shown) [Example 18, 6-[3-Bromo-5-chloro-4-(3-hydroxypropoxy)phenyl]-5-methyl-4,5-dihydro-2H-pyridazin-3-one], the melting point is 153 to 156.6 °C. For the same compound, the IC50 in data set [1] was 4 nM.
Compound `CC1CC(=O)NN=C1c1ccc(OCCCO)c(Cl)c1O` (stereo not shown) [Example 77, 6-[3-Chloro-2-hydroxy-4-(3-hydroxypropoxy)phenyl]-5-methyl-4,5-dihydro-2H-pyridazin-3-one] returned a melting point of 225 to 225.3 °C. Also, the IC50 in data set [1] was determined as 5.3 nM.
Taken in the same sequence, the figures for `Cc1c(OCCCO)ccc(C2=NNC(=O)CC2C)c1O` (stereo not shown) [Example 78, 6-[2-Hydroxy-4-(3-hydroxypropoxy)-3-methylphenyl]-5-methyl-4,5-dihydro-2H-pyridazin-3-one] were 199.1 to 200.1 °C and 6.6 nM.
On the same counts, the results for `Cc1c(OCCCCO)ccc(C2=NNC(=O)CC2C)c1O` (stereo not shown) [Example 87, 6-[2-Hydroxy-4-(4-hydroxybutoxy)-3-methylphenyl]-5-methyl-4,5-dihydro-2H-pyridazin-3-one] are 178.7 to 179.9 °C and 9.8 nM.
Compound `CC1CC(=O)NN=C1c1ccc(OCCCCO)c(Cl)c1O` (stereo not shown) [Example 88, 6-[3-Chloro-2-hydroxy-4-(4-hydroxybutoxy)phenyl]-5-methyl-4,5-dihydro-2H-pyridazin-3-one] returned a melting point of 204.5 to 204.9 °C. For the same compound, the IC50 in data set [1] was determined as 9.5 nM.
On the same counts, the results for `C=Cc1c(OCCCCO)ccc(C2=NNC(=O)CC2C)c1F` (stereo not shown) [Example 89, 6-[2-Fluoro-4-(4-hydroxybutoxy)-3-vinylphenyl]-5-methyl-4,5-dihydro-2H-pyridazin-3-one] are 106.4 to 107.4 °C and 4.9 nM.
`Cc1cc(C2=NNC(=O)C[C@H]2C)c(O)c(Cl)c1OCCCO` [Example 181, (5R)-(−)-6-[3-chloro-2-hydroxy-4-(3-hydroxypropoxy)-5-methylphenyl]-5-methyl-4,5-dihydro-2H-pyridazin-3-one]: the IC50 in data set [1] came out at 3.9 nM.
With `C[C@@H]1CC(=O)NN=C1c1ccc(OCC(C)(C)O)c(Cl)c1O` [Example 182, (5R)-(−)-6-[3-chloro-2-hydroxy-4-(2-hydroxy-2-methylpropoxy)phenyl]-5-methyl-4,5-dihydro-2H-pyridazin-3-one], the IC50 in data set [1] was 2.9 nM.
As to `C[C@@H]1CC(=O)NN=C1c1ccc(OC/C=C\CO)c(Cl)c1O` [Example 183, (5R)-(−)-6-{3-chloro-2-hydroxy-4-[(Z)-4-hydroxy-2-butenyloxy]phenyl}-5-methyl-4,5-dihydro-2H-pyridazin-3-one], the IC50 in data set [1] is 4.5 nM.
In the case of `CC1CC(=O)NN=C1c1ccc(OCC(C)(C)O)c(C(F)(F)F)c1F` (stereo not shown) [Example 184, 6-[2-fluoro-4-(2-hydroxy-2-methylpropoxy)-3-(trifluromethyl)phenyl]-5-methyl-4,5-dihydro-2H-pyridazin-3-one], the IC50 in data set [1] is 2.2 nM.
